Measured values from patent US12559492B2, “BRAF degraders” (C4 Therapeutics, Inc., priority 2020, dated 2026).

Target: BRAF^V600E protein (Homo sapiens, UniProt P15056, V600E)
Assay: HiBiT cellular BRAF V600E degradation assay
Type: cell-based
Details: 24 h incubation; for DC50: A375.10 cells (HiBiT tag knocked in at N-terminal of BRAF V600E), concentration at which 50% of total cellular BRAF V600E is degraded; for Emax: A375.10 cells, Emax = amount of residual protein remaining in the cell after compound treatment, read-out: HiBit 24 h Emax

Chain of BRAF^V600E protein (P15056 whole entry V600E): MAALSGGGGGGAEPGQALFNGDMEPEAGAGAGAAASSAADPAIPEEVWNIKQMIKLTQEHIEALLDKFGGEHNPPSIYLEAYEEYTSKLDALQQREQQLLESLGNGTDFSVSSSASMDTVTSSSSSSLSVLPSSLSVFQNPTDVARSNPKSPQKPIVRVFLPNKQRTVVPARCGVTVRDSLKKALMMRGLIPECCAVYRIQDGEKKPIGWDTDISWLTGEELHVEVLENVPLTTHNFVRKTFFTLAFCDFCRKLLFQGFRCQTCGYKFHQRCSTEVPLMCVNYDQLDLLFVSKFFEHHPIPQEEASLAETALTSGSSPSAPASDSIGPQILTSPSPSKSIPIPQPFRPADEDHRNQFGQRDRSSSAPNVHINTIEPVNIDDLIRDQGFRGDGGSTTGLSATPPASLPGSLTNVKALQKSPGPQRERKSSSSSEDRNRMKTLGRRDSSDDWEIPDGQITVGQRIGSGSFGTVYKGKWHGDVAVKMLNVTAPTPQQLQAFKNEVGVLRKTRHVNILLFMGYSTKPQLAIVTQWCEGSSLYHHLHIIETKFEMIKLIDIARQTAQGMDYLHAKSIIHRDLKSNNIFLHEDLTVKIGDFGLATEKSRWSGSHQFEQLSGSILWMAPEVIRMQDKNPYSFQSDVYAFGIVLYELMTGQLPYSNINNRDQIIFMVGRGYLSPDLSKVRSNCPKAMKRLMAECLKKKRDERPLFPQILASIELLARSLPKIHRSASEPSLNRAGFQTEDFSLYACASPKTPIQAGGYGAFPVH

Compound	DC50	Emax
CCN(C)S(=O)(=O)Nc1cccc(C(=O)c2c[nH]c3ncc(-c4ccc(N5CCN(C(=O)CC6CCN(c7ccc(NC8CCC(=O)NC8=O)cc7F)CC6)CC5)nc4)cc23)c1F (stereo not drawn) [Example 111, 5-[6-[4-[2-[1-[4-[(2,6-dioxo-3-piperidyl)amino]-2-fluoro-phenyl]-4-piperidyl]acetyl]piperazin-1-yl]-3-pyridyl]-3-[3-[[ethyl(methyl)sulfamoyl]amino]-2-fluoro-benzoyl]-1H-pyrrolo[2,3-b]pyridine]	9.66 nM	15.6%
CCN(C)S(=O)(=O)Nc1cccc(C(=O)c2c[nH]c3ncc(-c4ccc(N5CCN(C(=O)CC6(O)CCN(c7ccc(NC8CCC(=O)NC8=O)cc7F)CC6)CC5)nc4)cc23)c1F (stereo not drawn) [Example 112, 5-[6-[4-[2-[1-[4-[(2,6-dioxo-3-piperidyl)amino]-2-fluoro-phenyl]-4-hydroxy-4-piperidyl]acetyl]piperazin-1-yl]-3-pyridyl]-3-[3-[[ethyl(methyl)sulfamoyl]amino]-2-fluoro-benzoyl]-1H-pyrrolo[2,3-b]pyridine]	6.46 nM	10.8%
CCN(C)S(=O)(=O)Nc1cccc(C(=O)c2c[nH]c3ncc(-c4ccc(N5CCN(C(=O)CC6(O)CCN(c7ccc(NC8CCC(=O)NC8=O)cn7)CC6)CC5)nc4)cc23)c1F (stereo not drawn) [Example 113, 5-[6-[4-[2-[1-[5-[(2,6-dioxo-3-piperidyl)amino]-2-pyridyl]-4-hydroxy-4-piperidyl]acetyl]piperazin-1-yl]-3-pyridyl]-3-[3-[[ethyl(methyl)sulfamoyl]amino]-2-fluoro-benzoyl]-1H-pyrrolo[2,3-b]pyridine]	26.3 nM	27.7%
CCN(C)S(=O)(=O)Nc1cccc(C(=O)c2c[nH]c3ncc(-c4ccc(N5CCN(C(=O)CC6(O)CCN(c7ccc(NC8CCC(=O)NC8=O)cc7F)C6)CC5)nc4)cc23)c1F (stereo not drawn) [Example 114, 5-[6-[4-[2-[1-[4-[(2,6-dioxo-3-piperidyl)amino]-2-fluoro-phenyl]-3-hydroxy-pyrrolidin-3-yl]acetyl]piperazin-1-yl]-3-pyridyl]-3-[3-[[ethyl(methyl)sulfamoyl]amino]-2-fluoro-benzoyl]-1H-pyrrolo[2,3-b]pyridine]	2.29 nM	10.9%
CCN(C)S(=O)(=O)Nc1cccc(C(=O)c2c[nH]c3ncc(-c4ccc(N5CCN(C(=O)CC6(O)CCN(c7ncc(NC8CCC(=O)NC8=O)cc7F)CC6)CC5)nc4)cc23)c1F (stereo not drawn) [Example 115, 5-[6-[4-[2-[1-[5-[(2,6-dioxo-3-piperidyl)amino]-3-fluoro-2-pyridyl]-4-hydroxy-4-piperidyl]acetyl]piperazin-1-yl]-3-pyridyl]-3-[3-[[ethyl(methyl)sulfamoyl]amino]-2-fluoro-benzoyl]-1H-pyrrolo[2,3-b]pyridine]	5.13 nM	12.2%
CCN(C)S(=O)(=O)Nc1cccc(C(=O)c2c[nH]c3ncc(-c4ccc(N5CCN(C(=O)CC6(O)CCN(c7ccc(NC8CCC(=O)NC8=O)cc7)CC6)CC5)cc4)cc23)c1F (stereo not drawn) [Example 116, 5-[4-[4-[2-[1-[4-[(2,6-dioxo-3-piperidyl)amino]phenyl]-4-hydroxy-4-piperidyl]acetyl]piperazin-1-yl]phenyl]-3-[3-[[ethyl(methyl)sulfamoyl]amino]-2-fluoro-benzoyl]-1H-pyrrolo[2,3-b]pyridine]	5.32 nM	13.4%
CCN(C)S(=O)(=O)Nc1cccc(C(=O)c2c[nH]c3ncc(-c4ccc(N5CCN(C(=O)CC6(O)CCN(c7ccc(NC8CCC(=O)NC8=O)cn7)CC6)CC5)cc4)cc23)c1F (stereo not drawn) [Example 117, 5-[4-[4-[2-[1-[5-[(2,6-dioxo-3-piperidyl)amino]-2-pyridyl]-4-hydroxy-4-piperidyl]acetyl]piperazin-1-yl]phenyl]-3-[3-[[ethyl(methyl)sulfamoyl]amino]-2-fluoro-benzoyl]-1H-pyrrolo[2,3-b]pyridine]	23.1 nM	25.3%
CCN(C)S(=O)(=O)Nc1cccc(C(=O)c2c[nH]c3ncc(-c4ccc(N5CCN(C(=O)CC6(O)CCN(c7ccc(NC8CCC(=O)NC8=O)cc7F)C6)CC5)cc4)cc23)c1F (stereo not drawn) [Example 118, 5-[4-[4-[2-[1-[4-[(2,6-dioxo-3-piperidyl)amino]-2-fluoro-phenyl]-3-hydroxy-pyrrolidin-3-yl]acetyl]piperazin-1-yl]phenyl]-3-[3-[[ethyl(methyl)sulfamoyl]amino]-2-fluoro-benzoyl]-1H-pyrrolo[2,3-b]pyridine]	27.2 nM	13.4%
CCN(C)S(=O)(=O)Nc1cccc(C(=O)c2c[nH]c3ncc(-c4ccc(N5CCN(C(=O)CC6(O)CCN(c7ccc(NC8CCC(=O)NC8=O)cc7F)CC6)CC5)cc4)cc23)c1F (stereo not drawn) [Example 119, 5-[4-[4-[2-[1-[4-[(2,6-dioxo-3-piperidyl)amino]-2-fluoro-phenyl]-4-hydroxy-4-piperidyl]acetyl]piperazin-1-yl]phenyl]-3-[3-[[ethyl(methyl)sulfamoyl]amino]-2-fluoro-benzoyl]-1H-pyrrolo[2,3-b]pyridine]	8.71 nM	10.5%
CCN(C)S(=O)(=O)Nc1cccc(C(=O)c2c[nH]c3ncc(-c4ccc(N5CCN(C(=O)CC6(O)CCN(c7ncc(NC8CCC(=O)NC8=O)cc7F)CC6)CC5)cc4)cc23)c1F (stereo not drawn) [Example 120, 5-[4-[4-[2-[1-[5-[(2,6-dioxo-3-piperidyl)amino]-3-fluoro-2-pyridyl]-4-hydroxy-4-piperidyl]acetyl]piperazin-1-yl]phenyl]-3-[3-[[ethyl(methyl)sulfamoyl]amino]-2-fluoro-benzoyl]-1H-pyrrolo[2,3-b]pyridine]	2.87 nM	9.99%

Results, then the compound that gave them:

DC50	Emax	Compound
2.3 nM	4.98%	CCN(C)S(=O)(=O)Nc1ccc(F)c(C(=O)c2c[nH]c3ncc(-c4cnc(N5CCN(C(=O)CN6CCC(c7ccc(NC8CCC(=O)NC8=O)cc7)CC6)CC5)nc4)cc23)c1Cl (stereo not drawn) [Example 121, 3-[2-chloro-3-[[ethyl(methyl)sulfamoyl]amino]-6-fluoro-benzoyl]-5-[2-[4-[2-[4-[4-[(2,6-dioxo-3-piperidyl)amino]phenyl]-1-piperidyl]acetyl]piperazin-1-yl]pyrimidin-5-yl]-1H-pyrrolo[2,3-b]pyridine]
46.4 nM	11.7%	CCN(C)S(=O)(=O)Nc1ccc(F)c(C(=O)c2c[nH]c3ncc(-c4cnc(N5CCN(C(=O)CN6CCC(c7ccc(NC8CCC(=O)NC8=O)cc7)CC6)CC5)nc4)cc23)c1C (stereo not drawn) [Example 123, 5-[2-[4-[2-[4-[4-[(2,6-dioxo-3-piperidyl)amino]phenyl]-1-piperidyl]acetyl]piperazin-1-yl]pyrimidin-5-yl]-3-[3-[[ethyl(methyl)sulfamoyl]amino]-6-fluoro-2-methyl-benzoyl]-1H-pyrrolo[2,3-b]pyridine]
22.1 nM	13%	CCN(C)S(=O)(=O)Nc1ccc(F)c(C(=O)c2c[nH]c3ncc(C#CC4CCN(C(=O)CN5CCC(c6ccc(NC7CCC(=O)NC7=O)cc6F)CC5)CC4)cc23)c1F (stereo not drawn) [Example 124, 5-[2-[1-[2-[4-[4-[(2,6-dioxo-3-piperidyl)amino]-2-fluoro-phenyl]-1-piperidyl]acetyl]-4-piperidyl]ethynyl]-3-[3-[[ethyl(methyl)sulfamoyl]amino]-2,6-difluoro-benzoyl]-1H-pyrrolo[2,3-b]pyridine]
13.2 nM	7.62%	CCN(C)S(=O)(=O)Nc1ccc(F)c(C(=O)c2c[nH]c3ncc(-c4cnc(N5CCC(C(=O)N6CCC(c7ccc(NC8CCC(=O)NC8=O)cc7)CC6)CC5)nc4)cc23)c1F (stereo not drawn) [Example 127, 5-[2-[4-[4-[4-[(2,6-dioxo-3-piperidyl)amino]phenyl]piperidine-1-carbonyl]-1-piperidyl]pyrimidin-5-yl]-3-[3-[[ethyl(methyl)sulfamoyl]amino]-2,6-difluoro-benzoyl]-1H-pyrrolo[2,3-b]pyridine]
20.9 nM	14.6%	CCN(C)S(=O)(=O)Nc1ccc(F)c(C(=O)c2c[nH]c3ncc(-c4cnc(N5CCC(C(=O)NC6CCN(c7ccc(NC8CCC(=O)NC8=O)cc7F)CC6)CC5)nc4)cc23)c1F (stereo not drawn) [Example 128, N-[1-[4-[(2,6-dioxo-3-piperidyl)amino]-2-fluoro-phenyl]-4-piperidyl]-1-[5-[3-[3-[[ethyl(methyl)sulfamoyl]amino]-2,6-difluoro-benzoyl]-1H-pyrrolo[2,3-b]pyridin-5-yl]pyrimidin-2-yl]piperidine-4-carboxamide]
5.11 nM	13.8%	CCN(C)S(=O)(=O)Nc1ccc(F)c(C(=O)c2c[nH]c3ncc(-c4cnc(N5CC[C@@H](C(=O)N6CCC(c7ccc(NC8CCC(=O)NC8=O)cc7)CC6)C5)nc4)cc23)c1F (stereo partly drawn) [Example 129, 5-[2-[(3R)-3-[4-[4-[(2,6-dioxo-3-piperidyl)amino]phenyl]piperidine-1-carbonyl]pyrrolidin-1-yl]pyrimidin-5-yl]-3-[3-[[ethyl(methyl)sulfamoyl]amino]-2,6-difluoro-benzoyl]-1H-pyrrolo[2,3-b]pyridine]
9.73 nM	12.9%	CCN(C)S(=O)(=O)Nc1ccc(F)c(C(=O)c2c[nH]c3ncc(-c4cnc(N5CC[C@H](C(=O)N6CCC(c7ccc(NC8CCC(=O)NC8=O)cc7)CC6)C5)nc4)cc23)c1F (stereo partly drawn) [Example 130, 5-[2-[(3S)-3-[4-[4-[(2,6-dioxo-3-piperidyl)amino]phenyl]piperidine-1-carbonyl]pyrrolidin-1-yl]pyrimidin-5-yl]-3-[3-[[ethyl(methyl)sulfamoyl]amino]-2,6-difluoro-benzoyl]-1H-pyrrolo[2,3-b]pyridine]
27.1 nM	21.2%	CCN(C)S(=O)(=O)Nc1ccc(F)c(C(=O)c2c[nH]c3ncc(-c4cnc(N5CC[C@@H](CC(=O)N6CCC(c7ccc(NC8CCC(=O)NC8=O)cc7)CC6)C5)nc4)cc23)c1F (stereo partly drawn) [Example 131, 5-[2-[(3S)-3-[2-[4-[4-[(2,6-dioxo-3-piperidyl)amino]phenyl]-1-piperidyl]-2-oxo-ethyl]pyrrolidin-1-yl]pyrimidin-5-yl]-3-[3-[[ethyl(methyl)sulfamoyl]amino]-2,6-difluoro-benzoyl]-1H-pyrrolo[2,3-b]pyridine]
